Assay results from patent publication US20260098046A1, “RIFABUTIN ANALOGS FOR THE TREATMENT OF DISEASE” (BIOVERSYS AG, priority 2022, published 2026).
In brackets after ≈: the same amount, converted by molar mass.

Assays:
Type in all cases: cell-based
M. kansasii (ATCC12478) = assay: MIC by broth microdilution (CLSI) against M. kansasii; conditions: Mycobacterium kansasii, 168 h, cation adjusted Mueller Hinton broth + ADC (5%), 37° C. for 7 days (at least), read-out: In vitro activity (MIC) M. kansasii
Method: (§1) MIC values were determined by broth microdilution method according to the CLSI guideline. Unless otherwise mentioned, MIC against A. baumannii was performed in RPMI medium supplemented with 10% FCS. MIC against M. abscessus was performed in Middlebrook 7H9 broth supplemented with Middlebrook ADC growth supplement (10%). All other MIC were performed in standard cation adjusted Mueller Hinton broth, supplemented with Middlebrook ADC growth supplement (5%) for the slow growing mycobacteria (M. xenopi, M. kansasii and M. avium).
(§2) The following procedure applies to all species tested, except for M. xenopi. From a fresh culture plate (from overnight to several days depending on the bacteria), cells were resuspended in 0.9% (w/v) saline solution and bacterial inoculum was prepared in the respective testing medium with 5×10^5 CFU/mL. For M. xenopi, the inoculum was prepared from a fresh liquid culture (7H9+ADC). The appropriate volumes of a 10 mg/mL compound solution were directly dispensed in the 96-well assay plate using a digital dispenser to create two-fold dilution series from 32 to 0.002 μg/mL final concentration for A. baumannii and S. aureus; from 16 to 0.016 μg/mL for M. abscessus and M. avium; and from 1 to 6×10^−5 μg/mL for M. kansasii and M. xenopi. 100 μL of bacterial suspension was finally added to the compounds. Plates were covered and incubated without shaking at 35° C. for 20 hours for A. baumanii and S. aureus; at 30° C. for 4 days for M. abscessus; and at 37° C. for 7 days (at least) for M. kansasii (covered with aluminum foil to avoid light exposure), M. avium and M. xenopi. Every experiment contained an antibiotic as quality control. MIC was determined visually as the lowest concentration of a compound that prevents visible growth of the bacteria.
(§3) The in vitro activity of compounds described herein was determined against S. aureus (UAMS-1625 strain), A. baumannii (HUMC1 strain), M. abscessus (ATCC 19977), M. kansasii (ATCC12478), M. avium (ATCC25291), and M. xenopi (ATCC19250).

[1] = tested on: M. abscessus (ATCC 19977); assay: MIC by broth microdilution (CLSI) against M. abscessus; conditions: Mycobacteroides abscessus, ATCC19977, 96 h; ATCC 19977; Middlebrook 7H9 broth + ADC (10%); 30° C. for 4 days; read-out: In vitro activity (MIC) M. abscessus
Method: as §1, §2, §3

[2] = tested on: S. aureus (UAMS-1625 strain); assay: MIC by broth microdilution (CLSI) against S. aureus; conditions: Staphylococcus aureus, 20 h, read-out: In vitro activity (MIC) S. aureus
Method: as §1, §2, §3

M. avium (ATCC25291) = assay: MIC by broth microdilution (CLSI) against M. avium; conditions: Mycobacterium avium, 168 h, cation adjusted Mueller Hinton broth + ADC (5%), 37° C. for 7 days (at least), read-out: In vitro activity (MIC) M. avium
Method: as §1, §2, §3

[3] = tested on: A. baumannii (HUMC1 strain); assay: MIC by broth microdilution (CLSI) against A. baumannii; conditions: Acinetobacter baumannii, RPMI medium supplemented with 10% FCS, 35° C. for 20 hours, read-out: In vitro activity (MIC) A. baumannii
Method: as §1, §2, §3

M. xenopi (ATCC19250) = assay: MIC by broth microdilution (CLSI) against M. xenopi; conditions: Mycobacterium xenopi, 168 h, cation adjusted Mueller Hinton broth + ADC (5%), 37° C. for 7 days (at least), read-out: In vitro activity (MIC) M. xenopi
Method: as §1, §2, §3

| Structure (SMILES) | MIC (M. kansasii (ATCC12478)) [ng/mL] | MIC [1] [µg/mL] | MIC [2] [µg/mL] | MIC (M. avium (ATCC25291)) [µg/mL] | MIC [3] [µg/mL] | MIC (M. xenopi (ATCC19250)) [µg/mL] |
| --- | --- | --- | --- | --- | --- | --- |
| CO[C@H]1/C=C/O[C@@]2(C)Oc3c(C)c(O)c4c(c3C2=O)C2=NC3(CCN(CC(C)C)CC3)NC2=C(NC(=O)/C(C)=C\C=C\[C@H](C)[C@H](O)[C@@H](C)[C@@H](O)[C@@H](C)[C@H](OC(=O)Cn2cc(CN(C)Cc3ccccc3)nn2)[C@@H]1C)C4=O [Compound 12] | 4 | 0.25 | 0.125 (≈ 0.119 µM) | 0.03 | 0.008 (≈ 0.00764 µM) | 0.03 |
| COc1ccc(-c2cn(CC(=O)O[C@H]3[C@H](C)[C@H](O)[C@H](C)[C@@H](O)[C@@H](C)/C=C/C=C(/C)C(=O)NC4=C5NC6(CCN(CC(C)C)CC6)N=C5c5c(c(O)c(C)c6c5C(=O)[C@@](C)(O/C=C/[C@H](OC)[C@H]3C)O6)C4=O)nn2)cc1 [Compound 2] | 2 | 0.25 | 0.125 (≈ 0.123 µM) | 0.06 | 0.016 (≈ 0.0157 µM) | 0.125 |
| CO[C@H]1/C=C/O[C@@]2(C)Oc3c(C)c(O)c4c(c3C2=O)C2=NC3(CCN(CC(C)C)CC3)NC2=C(NC(=O)/C(C)=C\C=C\[C@H](C)[C@H](O)[C@@H](C)[C@@H](O)[C@@H](C)[C@H](OC(=O)Cn2cc(C3CCCCC3)nn2)[C@@H]1C)C4=O [Compound 26] | 2 | 0.25 | 0.125 (≈ 0.125 µM) | 0.03 | 0.016 (≈ 0.0161 µM) | 0.03 |
| CO[C@H]1/C=C/O[C@@]2(C)Oc3c(C)c(O)c4c(c3C2=O)C2=NC3(CCN(CC(C)C)CC3)NC2=C(NC(=O)/C(C)=C\C=C\[C@H](C)[C@H](O)[C@@H](C)[C@@H](O)[C@@H](C)[C@H](OC(=O)Cn2cc(-c3ccccn3)nn2)[C@@H]1C)C4=O [Compound 8] | 4 | 0.25 | 0.03 (≈ 0.0303 µM) | 0.06 | ≤ 0.002 | 0.06 |
